According to ChEMBL document CHEMBL3046266, “Synthesis of curcumin and ethylcurcumin bioconjugates as potential antitumor agents” (Med Chem Res, 2012):
Activity calls are given as the source filed them. The rule behind the calls is not given here.

What was measured:
KB [1] = test: Cytotoxicity against Homo sapiens (human) KB cells up to 25 uM by neutral red staining; format: functional, cell-based
[2] = molecular target: T1, DNA topoisomerase 1 (Homo sapiens) (UniProt P11387); test: Inhibition of Homo sapiens (human) topoisomerase 1 assessed as relaxation of supercoiled DNA up to 25 uM by agarose gel electrophoresis
T1 sequence (whole entry): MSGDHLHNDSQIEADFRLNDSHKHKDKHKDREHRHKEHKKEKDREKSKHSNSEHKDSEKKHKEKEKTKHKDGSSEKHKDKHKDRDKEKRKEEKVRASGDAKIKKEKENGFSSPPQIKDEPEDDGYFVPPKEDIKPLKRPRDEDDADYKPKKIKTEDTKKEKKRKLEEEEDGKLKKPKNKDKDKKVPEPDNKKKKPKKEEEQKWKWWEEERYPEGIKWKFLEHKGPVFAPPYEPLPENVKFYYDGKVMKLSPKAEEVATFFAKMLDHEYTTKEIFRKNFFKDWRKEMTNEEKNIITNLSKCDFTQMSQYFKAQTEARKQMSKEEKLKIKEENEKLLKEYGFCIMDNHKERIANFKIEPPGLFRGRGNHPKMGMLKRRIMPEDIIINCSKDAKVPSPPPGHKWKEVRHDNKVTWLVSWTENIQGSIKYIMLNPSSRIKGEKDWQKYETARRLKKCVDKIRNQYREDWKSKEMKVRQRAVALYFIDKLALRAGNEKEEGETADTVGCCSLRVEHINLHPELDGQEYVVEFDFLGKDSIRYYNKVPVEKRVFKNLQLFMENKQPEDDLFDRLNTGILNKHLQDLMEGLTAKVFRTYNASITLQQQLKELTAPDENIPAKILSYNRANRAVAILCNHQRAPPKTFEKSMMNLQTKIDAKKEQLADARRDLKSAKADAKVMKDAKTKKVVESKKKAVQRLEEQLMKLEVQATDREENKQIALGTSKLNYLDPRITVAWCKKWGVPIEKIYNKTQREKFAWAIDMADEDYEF

[3] = molecular target: T2, DNA topoisomerase 2-alpha (Homo sapiens, UniProt P11388); test: Inhibition of Homo sapiens (human) topoisomerase 2 assessed as decatenation of KDNA up to 25 uM by agarose gel electrophoresis
BT-549 [4] = test: Cytotoxicity against Homo sapiens (human) BT549 cells up to 25 uM by neutral red staining; format: functional, cell-based
SK-MEL [5] = test: Cytotoxicity against Homo sapiens (human) SK-MEL cells up to 25 uM by neutral red staining; format: functional, cell-based
[6] = molecular target: T1, DNA topoisomerase 1 (Homo sapiens); test: Inhibition of Homo sapiens (human) topoisomerase 1 assessed as production of nicked DNA up to 25 uM by agarose gel electrophoresis
Vero [7] = test: Cytotoxicity against Chlorocebus aethiops (African green monkey) Vero cells up to 25 uM by neutral red staining; format: cell-based; settings: chlorocebus sabaeus
SK-OV-3 [8] = test: Cytotoxicity against Homo sapiens (human) SKOV3 cells up to 25 uM by neutral red staining; format: functional, cell-based
LLC-PK1 [9] = test: Cytotoxicity against Sus scrofa (pig) LLC-PK1 cells up to 25 uM by neutral red staining; format: cell-based
BT-549 [10] = test: Cytotoxicity against Homo sapiens (human) BT549 cells by neutral red staining; format: functional, cell-based
KB [11] = test: Cytotoxicity against Homo sapiens (human) KB cells by neutral red staining; format: functional, cell-based
[12] = molecular target: T2, DNA topoisomerase 2-alpha; test: Inhibition of Homo sapiens (human) topoisomerase 2 assessed as decatenation of KDNA by agarose gel electrophoresis
SK-MEL [13] = test: Cytotoxicity against Homo sapiens (human) SK-MEL cells by neutral red staining; format: functional, cell-based
Vero [14] = test: Cytotoxicity against Chlorocebus aethiops (African green monkey) Vero cells by neutral red staining; format: cell-based; settings: chlorocebus sabaeus
LLC-PK1 [15] = test: Cytotoxicity against Sus scrofa (pig) LLC-PK1 cells by neutral red staining; format: cell-based
SK-OV-3 [16] = test: Cytotoxicity against Homo sapiens (human) SKOV3 cells by neutral red staining; format: functional, cell-based

T2 sequence (P11388 whole entry): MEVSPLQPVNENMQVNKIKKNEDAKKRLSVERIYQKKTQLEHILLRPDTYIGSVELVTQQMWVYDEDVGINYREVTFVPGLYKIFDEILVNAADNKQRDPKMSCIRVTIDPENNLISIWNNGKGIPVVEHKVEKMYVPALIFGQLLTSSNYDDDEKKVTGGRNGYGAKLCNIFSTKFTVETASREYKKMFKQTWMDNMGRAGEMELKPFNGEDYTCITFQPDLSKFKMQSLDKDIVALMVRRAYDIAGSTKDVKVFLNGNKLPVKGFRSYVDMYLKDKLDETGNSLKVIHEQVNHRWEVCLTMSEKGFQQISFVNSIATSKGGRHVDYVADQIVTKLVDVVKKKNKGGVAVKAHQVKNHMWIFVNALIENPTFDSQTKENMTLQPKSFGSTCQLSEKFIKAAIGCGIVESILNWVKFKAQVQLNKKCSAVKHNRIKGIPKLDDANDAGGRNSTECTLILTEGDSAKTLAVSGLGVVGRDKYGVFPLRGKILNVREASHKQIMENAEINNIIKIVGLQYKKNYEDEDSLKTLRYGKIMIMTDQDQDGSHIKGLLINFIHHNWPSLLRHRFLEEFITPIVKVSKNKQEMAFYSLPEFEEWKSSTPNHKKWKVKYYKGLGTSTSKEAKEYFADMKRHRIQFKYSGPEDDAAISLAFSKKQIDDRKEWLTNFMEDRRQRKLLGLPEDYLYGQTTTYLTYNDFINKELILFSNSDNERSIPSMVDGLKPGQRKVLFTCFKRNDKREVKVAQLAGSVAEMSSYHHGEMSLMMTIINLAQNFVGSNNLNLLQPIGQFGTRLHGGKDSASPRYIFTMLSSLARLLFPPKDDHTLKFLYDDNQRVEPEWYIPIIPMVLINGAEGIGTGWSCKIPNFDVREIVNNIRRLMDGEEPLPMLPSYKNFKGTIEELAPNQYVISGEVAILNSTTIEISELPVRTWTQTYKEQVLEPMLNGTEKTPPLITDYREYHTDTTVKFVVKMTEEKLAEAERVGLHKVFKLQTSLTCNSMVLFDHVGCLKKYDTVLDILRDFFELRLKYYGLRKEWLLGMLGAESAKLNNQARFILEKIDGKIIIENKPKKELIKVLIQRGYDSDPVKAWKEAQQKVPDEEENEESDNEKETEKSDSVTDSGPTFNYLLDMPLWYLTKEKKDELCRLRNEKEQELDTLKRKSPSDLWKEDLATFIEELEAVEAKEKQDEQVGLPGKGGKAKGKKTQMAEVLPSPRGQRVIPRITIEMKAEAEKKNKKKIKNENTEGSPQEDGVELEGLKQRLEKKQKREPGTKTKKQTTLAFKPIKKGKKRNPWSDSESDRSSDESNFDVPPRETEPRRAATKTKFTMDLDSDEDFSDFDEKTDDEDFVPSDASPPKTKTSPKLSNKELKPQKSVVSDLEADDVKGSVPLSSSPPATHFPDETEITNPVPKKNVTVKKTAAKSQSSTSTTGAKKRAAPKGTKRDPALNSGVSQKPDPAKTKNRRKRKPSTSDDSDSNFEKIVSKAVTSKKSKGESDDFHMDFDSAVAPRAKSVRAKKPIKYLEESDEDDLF

Row | inhibition [2] | inhibition [3] | inhibition [6] | IC50 [12] | SMILES | Activity (KB [1]) | Activity (BT-549 [4]) | Activity (SK-MEL [5]) | Activity (Vero [7]) | Activity (SK-OV-3 [8]) | Activity (LLC-PK1 [9]) | IC50 (BT-549 [10]) | IC50 (KB [11]) | IC50 (SK-MEL [13]) | IC50 (Vero [14]) | IC50 (LLC-PK1 [15]) | IC50 (SK-OV-3 [16])
1 | inactive | inactive | inactive | – | CCOc1cc(/C=C/C(=O)CC(=O)/C=C/c2ccc(OC(=O)CCNCCN(C)C)c(OCC)c2)ccc1OC(=O)CCNCCN(C)C | inactive | inactive | inactive | Non-toxic | inactive | Non-toxic | – | – | – | – | – | –
2 | inactive | – | inactive | 15 µM | COc1cc(/C=C/C(=O)CC(=O)/C=C/c2ccc(OC(=O)CNc3nnc(C)s3)c(OC)c2)ccc1OC(=O)CNc1nnc(C)s1 | – | – | – | – | inactive | – | 8.75 µM | 22.5 µM | 7.5 µM | 23 µM | 22.5 µM | –
3 | inactive | – | inactive | 3 µM | COc1cc(/C=C/C(=O)CC(=O)/C=C/c2ccc(OC(=O)CCNc3nnc(C)s3)c(OC)c2)ccc1OC(=O)CCNc1nnc(C)s1 | – | – | – | – | inactive | – | 4.25 µM | 16.3 µM | 7.5 µM | 15 µM | 15.5 µM | –
4 | inactive | – | inactive | 3 µM | CCN(CC)CCNCC(=O)Oc1ccc(/C=C/C(=O)CC(=O)/C=C/c2ccc(OC(=O)CNCCN(CC)CC)c(OC)c2)cc1OC | – | – | – | – | – | Non-toxic | 16.3 µM | 24 µM | 8.5 µM | 19.5 µM | – | 15.5 µM
5 | inactive | – | inactive | 10 µM | CCOc1cc(/C=C/C(=O)CC(=O)/C=C/c2ccc(OC(=O)CNCCN(CC)CC)c(OCC)c2)ccc1OC(=O)CNCCN(CC)CC | – | – | – | – | – | – | 10 µM | 11.5 µM | 11.5 µM | 5 µM | 5.8 µM | 14.8 µM
6 | inactive | – | inactive | 2.7 µM | CCOc1cc(/C=C/C(=O)CC(=O)/C=C/c2ccc(OC(=O)CNc3nnc(C)s3)c(OCC)c2)ccc1OC(=O)CNc1nnc(C)s1 | – | – | – | – | – | – | 12 µM | 11.5 µM | 12.5 µM | 11.5 µM | 13 µM | 15.8 µM
7 | inactive | – | inactive | 16 µM | COc1cc(/C=C/C(=O)CC(=O)/C=C/c2ccc(OC(=O)CNCCN(C)C)c(OC)c2)ccc1OC(=O)CNCCN(C)C | inactive | – | – | Non-toxic | – | Non-toxic | 20 µM | – | 15 µM | – | – | 22.5 µM

Further lines, the molecule ahead of its results:

Row | SMILES | inhibition [2] | inhibition [3] | inhibition [6] | IC50 [12] | Activity (KB [1]) | Activity (BT-549 [4]) | Activity (SK-MEL [5]) | Activity (Vero [7]) | Activity (SK-OV-3 [8]) | Activity (LLC-PK1 [9]) | IC50 (BT-549 [10]) | IC50 (KB [11]) | IC50 (SK-MEL [13]) | IC50 (Vero [14]) | IC50 (LLC-PK1 [15]) | IC50 (SK-OV-3 [16])
8 | CCOc1cc(/C=C/C(=O)CC(=O)/C=C/c2ccc(OC(=O)CNCCCl)c(OCC)c2)ccc1OC(=O)CNCCCl | inactive | – | inactive | 4.1 µM | – | – | – | – | inactive | – | 9 µM | 12.5 µM | 13.3 µM | 11 µM | 6.8 µM | –
9 | COc1cc(/C=C/C(=O)CC(=O)/C=C/c2ccc(OC(=O)CN(CCCl)CCCl)c(OC)c2)ccc1OC(=O)CN(CCCl)CCCl | inactive | – | inactive | 5 µM | – | – | – | – | inactive | – | 6.75 µM | 19.5 µM | 7 µM | > 25 µM | 20 µM | –
10 | COc1cc(/C=C/C(=O)CC(=O)/C=C/c2ccc(OC(=O)CCNCCCl)c(OC)c2)ccc1OC(=O)CCNCCCl | inactive | – | inactive | 2.9 µM | – | – | – | – | – | – | 11 µM | 11.5 µM | 15 µM | 12.5 µM | 16.8 µM | 23.8 µM
11 | CCOc1cc(/C=C/C(=O)CC(=O)/C=C/c2ccc(OC(=O)CNc3nc4ccc(OC)cc4s3)c(OCC)c2)ccc1OC(=O)CNc1nc2ccc(OC)cc2s1 | inactive | – | inactive | 12 µM | inactive | inactive | – | Non-toxic | – | Non-toxic | – | – | 4.75 µM | – | – | 2.8 µM
12 | COc1cc(/C=C/C(=O)CC(=O)/C=C/c2ccc(OC(=O)CNc3ccc(S(N)(=O)=O)cc3)c(OC)c2)ccc1OC(=O)CNc1ccc(S(N)(=O)=O)cc1 | inactive | – | inactive | 3 µM | – | – | – | – | – | – | 10.5 µM | 14 µM | 18.8 µM | 11 µM | 15.8 µM | 22.5 µM
13 | CCOc1cc(/C=C/C(=O)CC(=O)/C=C/c2ccc(OC(=O)CN(CCCl)CCCl)c(OCC)c2)ccc1OC(=O)CN(CCCl)CCCl | inactive | – | inactive | 3.4 µM | – | – | – | – | – | – | 11 µM | 21.5 µM | 14.5 µM | 15 µM | 13.8 µM | 13.5 µM
14 | COc1cccc2c1C(=O)c1c(O)c3c(c(O)c1C2=O)C[C@@](O)(C(=O)CO)C[C@@H]3O[C@H]1C[C@H](N)[C@H](O)[C@H](C)O1 [DOXORUBICIN] | – | – | – | – | – | – | – | – | – | – | < 0.55 µM | < 0.55 µM | 0.55 µM | > 5 µM | 0.75 µM | 0.8 µM
